Converted amounts (≈) assume the structure as drawn. Counter-ions that a name gives are not always drawn. Like-named read-outs stand apart in the source and are kept apart here.
How the values were obtained:
[1] = biological target: CYP2C9 (Homo sapiens, UniProt P11712); assay: biochemical
[2] = Test for solubility according to pH; type: physicochemical; details: 37 °C, thermodynamic from solid, 37° C. 2 hours
[3] = biological target: T1, hURAT1 (Homo sapiens, UniProt Q96S37); assay: Test for inhibiting urate reuptake activity via hURAT1 (uric acid transport assay in hURAT1-overexpressed HEK293 cell line); type: cell-based; details: hURAT1-overexpressed HEK293 cells, [14C]-uric acid uptake, 100 μM uric acid; read-out: IC50 (μM) hURAT, level of uric acid reuptake inhibition
T1 construct: expressed in transfected cells; host or cells: HEK293 (human kidney cell line), transient transfection with Fugene6
T1 sequence (Q96S37 1-553): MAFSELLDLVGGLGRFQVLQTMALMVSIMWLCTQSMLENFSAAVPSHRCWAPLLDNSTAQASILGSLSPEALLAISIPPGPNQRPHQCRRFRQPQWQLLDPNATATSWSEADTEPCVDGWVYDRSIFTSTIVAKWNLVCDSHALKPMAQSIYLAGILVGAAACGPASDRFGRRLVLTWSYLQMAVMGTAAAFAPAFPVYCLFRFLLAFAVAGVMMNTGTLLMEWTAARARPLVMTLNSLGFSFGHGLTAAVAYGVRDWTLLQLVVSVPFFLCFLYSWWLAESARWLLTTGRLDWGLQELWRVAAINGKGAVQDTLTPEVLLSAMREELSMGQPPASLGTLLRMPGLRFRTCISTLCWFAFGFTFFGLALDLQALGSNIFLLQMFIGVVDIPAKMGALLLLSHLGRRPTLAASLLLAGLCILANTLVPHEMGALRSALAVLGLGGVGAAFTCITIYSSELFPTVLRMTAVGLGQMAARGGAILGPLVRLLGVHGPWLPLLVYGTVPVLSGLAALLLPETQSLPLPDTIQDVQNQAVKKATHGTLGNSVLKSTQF
Method: Test for Inhibiting Urate Reuptake Activity Via hURAT1
[hURAT1 Overexpression by Transient Transfection in Human Kidney Cell Line]
A human kidney cell line, HEK293 was incubated by using OptiMEM medium in 100 mm dish at (3*10^6 cells) for 24 hours. In order for the expression of hURAT1, a transfection mixture solution (Fugene6 18 μl:hURAT1 DNA 6 μg=3:1, in 600 μl OptiMEM medium/dish) was prepared and kept for 15 minutes at room temperature. To each dish, 600 μl of the mixture solution was injected and then incubated in 37[…] cell incubator for 24 hours. The hURAT1-overexpressed HEK293 cell line was trypsinized and cells were harvested. Cells were resuspended in medium and seeded at 6*10^5 cells/well and incubated for 24 hours in 24-well plate which was surface-coated with Poly-D-Lysine.
[Uric Acid Transport Assay in hURAT1-Overexpressed HEK293 Cell Line]
For each concentration, the stock sample solution was diluted in PBS (1 μl in 800 μl of PBS) as 1.25 fold concentrated working sample solution to obtain final concentrations of 0.01, 0.1, 1 and 10 μM. The hURAT1-overexpressed cell line was washed with 1 ml of PBS. After washing, PBS was discarded and the sample solution was diluted by 1.25 fold with PBS. Preincubation of cells with 200 μl/well of sample solution made above was conducted for 30 minutes in 37[…] cell incubator. After the incubation, each well was treated with 50 μl of PBS containing 500 μM [^14C]-uric acid (final 100 μM of uric acid/well). Cells were incubated for 2 minutes. The cells were washed twice with 1 ml of PBS.
To measure the uric acid uptake, each well was treated with 150 μl of M-per buffer (PIERCE) and kept in 37° C. cell incubator for 30 minutes to make cell lysates. 150 μl of cell lysates was transferred into test tube and 4 ml of scintillation cocktail was added. CPM value of [^14C]-uric acid absorbed into cells was detected using liquid scintillation counter. IC50 for the inhibition of uric acid uptake by each test sample was analyzed by computational numerical processing.

[4] = pH 1.2, simulated gastric fluid, first solution pH about 1.2, 2 mg/mL, read-out: Solubility (μg/mL) pH 1.2
[5] = pH 6.8, aqueous buffer, second solution pH about 6.8, 2 mg/mL, read-out: Solubility (μg/mL) pH 6.8

Sequence of CYP2C9 (P11712 whole entry): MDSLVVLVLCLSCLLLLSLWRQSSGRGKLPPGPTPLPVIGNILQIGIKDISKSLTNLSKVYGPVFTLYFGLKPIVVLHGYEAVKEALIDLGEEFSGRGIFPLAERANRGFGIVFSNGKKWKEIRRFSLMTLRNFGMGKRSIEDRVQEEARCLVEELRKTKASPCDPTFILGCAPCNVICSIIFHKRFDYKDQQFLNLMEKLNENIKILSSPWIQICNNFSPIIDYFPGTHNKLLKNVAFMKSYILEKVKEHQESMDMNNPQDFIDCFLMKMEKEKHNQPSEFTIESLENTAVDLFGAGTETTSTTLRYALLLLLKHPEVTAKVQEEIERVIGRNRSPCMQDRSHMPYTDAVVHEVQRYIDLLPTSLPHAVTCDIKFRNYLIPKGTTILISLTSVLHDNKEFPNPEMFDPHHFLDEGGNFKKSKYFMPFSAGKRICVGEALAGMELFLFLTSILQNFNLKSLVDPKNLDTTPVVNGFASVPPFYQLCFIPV

Row | IC50 [1] | solubility at 2 h [2, 4] | solubility at 2 h [2, 5] | IC50 [3] | Structure (SMILES)
1 | 12100 nM | 56.1 µg/mL (≈ 135 µM) | 277 µg/mL (≈ 669 µM) | 0.079 µM | O=C(c1cc(Br)c(O)c(Br)c1)N1CCOc2ncccc21 [Compound 1, (3,5-dibromo-4-hydroxy-phenyl)-(2,3-dihydro-pyrido[2,3-b][1,4]oxazin-1-yl)-methanone]
2 | – | 1610 µg/mL | 1890 µg/mL | 1 µM | Br.O=C(c1cc(Cl)c(O)c([N+](=O)[O-])c1)N1CCOc2cnccc21 [Compound 17, (3-chloro-4-hydroxy-5-nitro-phenyl)-(2,3-dihydro-pyrido[3,4-b][1,4]oxazin-1-yl)-methanone bromic acid salt]
3 | 13400 nM | – | – | 0.0888 µM | COc1c(Br)cc(C(=O)N2CCOc3ncc(C(F)(F)F)cc32)cc1Br [Compound 22-1, (3,5-dibromo-4-methoxy-phenyl)-(7-trifluoromethyl-2,3-dihydro-pyrido[2,3-b][1,4]oxazin-1-yl)-methanone]
4 | > 20000 nM | – | – | 0.0073 µM | O=C(c1cc(Br)c(O)c(Br)c1)N1CCOc2ncc(Br)cc21 [Compound 25, (7-bromo-2,3-dihydro-pyrido[2,3-b][1,4]oxazin-1-yl)-(3,5-dibromo-4-hydroxy-phenyl)-methanone]
5 | > 20000 nM | – | – | 0.036 µM | COc1c(Br)cc(C(=O)N2CCOc3ncc(C)cc32)cc1Br [Compound 27-1, (3,5-dibromo-4-methoxy-phenyl)-(7-methyl-2,3-dihydro-pyrido[2,3-b][1,4]oxazin-1-yl)-methanone]
6 | > 20000 nM | – | – | 0.0964 µM | O=C(c1ccc(O)c(Br)c1)N1CCOc2ccncc21 [Compound 38, (3-bromo-4-hydroxy-phenyl)-(2,3-dihydro-pyrido[4,3-b][1,4]oxazin-4-yl)-methanone]
7 | 1180 nM | – | – | 0.0197 µM | O=C(c1cc(Br)c(O)c(Br)c1)N1CCOc2ncc(-c3ccc(C(F)(F)F)cc3)cc21 [Compound 45, (3,5-dibromo-4-hydroxy-phenyl)-[7-(4-trifluoromethyl-phenyl)-2,3-dihydro-pyrido[2,3-b][1,4]oxazin-1-yl]-methanone]
8 | 1090 nM | – | – | 0.0047 µM | O=C(c1cc(Br)c(O)c(Br)c1)N1CCOc2ncc(-c3ccccc3C(F)(F)F)cc21 [Compound 46, (3,5-dibromo-4-hydroxy-phenyl)-[7-(2-trifluoromethyl-phenyl)-2,3-dihydro-pyrido[2,3-b][1,4]oxazin-1-yl]-methanone]
9 | > 20000 nM | – | – | 0.516 µM | COc1c(Br)cc(C(=O)N2CCOc3ncc(C#N)cc32)cc1Br [Compound 47-1, 1-(3,5-dibromo-4-methoxy-benzoyl)-2,3-dihydro-1H-pyrido[2,3-b][1,4]oxazin-7-carbonitrile]
10 | 1680 nM | – | – | 0.0933 µM | COc1c(Br)cc(C(=O)N2CCOc3ncc(-c4cccc(N(C)C)c4)cc32)cc1Br [Compound 48, (3,5-dibromo-4-methoxy-phenyl)-[7-(3-dimethylamino-phenyl)-2,3-dihydro-pyrido[2,3-b][1,4]oxazin-1-yl]-methanone]
11 | > 20000 nM | – | – | 0.311 µM | COc1c(Br)cc(C(=O)N2CCOc3ncc(-c4cccc([N+](=O)[O-])c4)cc32)cc1Br [Compound 49, (3,5-dibromo-4-methoxy-phenyl)-[7-(3-nitro-phenyl)-2,3-dihydro-pyrido[2,3-b][1,4]oxazin-1-yl]-methanone]
12 | 1260 nM | – | – | 0.0044 µM | O=C(c1cc(Br)c(O)c(Br)c1)N1CCOc2ncc(-c3cccc([N+](=O)[O-])c3)cc21 [Compound 50, (3,5-dibromo-4-hydroxy-phenyl)-[7-(3-nitro-phenyl)-2,3-dihydro-pyrido[2,3-b][1,4]oxazin-1-yl]-methanone]
13 | 8800 nM | – | – | 0.0115 µM | Oc1c(Br)cc(C(=S)N2CCOc3ccncc32)cc1Br [Compound 51, (3,5-dibromo-4-hydroxy-phenyl)-(2,3-dihydro-pyrido[4,3-b][1,4]oxazin-4-yl)-methanethione]
14 | > 20000 nM | – | – | 0.0103 µM | O=C(c1cc(Br)c(O)c(Br)c1)N1CCOc2ncc(-c3cccnc3)cc21 [Compound 52, (3,5-dibromo-4-hydroxy-phenyl)-(7-pyridin-3-yl-2,3-dihydro-pyrido[2,3-b][1,4]oxazin-1-yl]-methanone]
15 | 10300 nM | – | – | 0.0562 µM | O=C(c1cc(Br)c(O)c(Br)c1)N1CCOc2ncc(-c3ccoc3)cc21 [Compound 53, (3,5-dibromo-4-hydroxy-phenyl)-(7-furan-3-yl-2,3-dihydro-pyrido[2,3-b][1,4]oxazin-1-yl]-methanone]
16 | 8870 nM | – | – | 0.0488 µM | O=C(c1cc(Br)c(O)c(Br)c1)N1CCOc2c1cnc1ccccc21 [Compound 55, (3,5-dibromo-4-hydroxy-phenyl)-(2,3-dihydro-4-oxa-1,9-diaza-phenanthren-1-yl)-methanone]
17 | > 20000 nM | – | – | 0.742 µM | COc1c(Br)cc(C(=O)N2CCOc3nc(C)ccc32)cc1Br [Compound 58, (3,5-dibromo-4-methoxy-phenyl)-(6-methyl-2,3-dihydro-pyrido[2,3-b][1,4]oxazin-1-yl)-methanone]
18 | 1230 nM | – | – | 0.002 µM | O=C(c1cc(Br)c(O)c(Br)c1)N1CCOc2ncc(-c3cncc4ccccc34)cc21 [Compound 61, (3,5-dibromo-4-hydroxy-phenyl)-(7-isoquinolin-4-yl-2,3-dihydro-pyrido[2,3-b][1,4]oxazin-1-yl)-methanone]
19 | 1110 nM | – | – | 0.0123 µM | O=C(c1cc(Br)c(O)c(Br)c1)N1CCOc2ncc(-c3cccc(C(F)(F)F)c3)cc21 [Compound 63, (3,5-dibromo-4-hydroxy-phenyl)-[7-(3-trifluoromethyl-phenyl)-2,3-dihydro-pyrido[2,3-b][1,4]oxazin-1-yl]-methanone]
20 | 12400 nM | – | – | 0.003 µM | N#Cc1ccc(-c2cnc3c(c2)N(C(=O)c2cc(Br)c(O)c(Br)c2)CCO3)cc1 [Compound 65, 4-[1-(3,5-dibromo-4-hydroxy-benzoyl)-2,3-dihydro-1H-pyrido[2,3-b][1,4]oxazin-7-yl]-benzonitrile]
21 | 1340 nM | – | – | 0.0358 µM | O=C(c1cc(Br)c(O)c(Br)c1)N1CCOc2ncc(-c3ccc(OC(F)(F)F)cc3)cc21 [Compound 66, (3,5-dibromo-4-hydroxy-phenyl)-[7-(4-trifluoromethoxy-phenyl)-2,3-dihydro-pyrido[2,3-b][1,4]oxazin-1-yl]-methanone]
22 | 1390 nM | – | – | 0.0232 µM | COc1cncc(-c2cnc3c(c2)N(C(=O)c2cc(Br)c(O)c(Br)c2)CCO3)c1 [Compound 68, (3,5-dibromo-4-hydroxy-phenyl)-[7-(5-methoxy-pyridin-3-yl)-2,3-dihydro-pyrido[2,3-b][1,4]oxazin-1-yl]-methanone]
23 | > 20000 nM | – | – | 0.0331 µM | Cc1cnc2c(c1)N(C(=O)c1ccc(O)c(C(F)(F)F)c1)CCO2 [Compound 69, (4-hydroxy-3-trifluoromethyl-phenyl)-(7-methyl-2,3-dihydro-pyrido[2,3-b][1,4]oxazin-1-yl)-methanone]
24 | 16700 nM | – | – | 0.006 µM | Oc1c(Br)cc(C(=S)N2CCOc3ccncc32)cc1Br [Compound 74, (3,5-dibromo-4-hydroxy-phenyl)-(2,3-dihydro-pyrido[4,3-b][1,4]oxazin-4-yl)-methanethione trifluoroacetic acid salt]

Source: patent US8394792B2, “Heterocyclic derivatives” (C&C Research Laboratories, priority 2008, dated 2013)
